biological target: T1, EZH2 (Homo sapiens, UniProt Q15910); assay: Cellular assay of target protein degradation (VCaP cells, ELISA); assay type: cell-based; settings: 4 hours, protein degradation range at indicated concentration (relative to DMSO control)
T1 construct: Protocol of the Cellular Assay of Target Protein Degradation (VCaP Cells, ELISA); endogenous in cells; host or cells: VCaP cells
Procedure, shortened: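 VCaP cells grown ≥3 days in RPMI with 5% CSS, then dosed with compounds in 0.1% DMSO for 4 h. Lysates analysed by sandwich ELISA for EZH2 with TMB readout at 450 nm, 562 nm used for background subtraction.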

T1 sequence (Q15910 whole entry): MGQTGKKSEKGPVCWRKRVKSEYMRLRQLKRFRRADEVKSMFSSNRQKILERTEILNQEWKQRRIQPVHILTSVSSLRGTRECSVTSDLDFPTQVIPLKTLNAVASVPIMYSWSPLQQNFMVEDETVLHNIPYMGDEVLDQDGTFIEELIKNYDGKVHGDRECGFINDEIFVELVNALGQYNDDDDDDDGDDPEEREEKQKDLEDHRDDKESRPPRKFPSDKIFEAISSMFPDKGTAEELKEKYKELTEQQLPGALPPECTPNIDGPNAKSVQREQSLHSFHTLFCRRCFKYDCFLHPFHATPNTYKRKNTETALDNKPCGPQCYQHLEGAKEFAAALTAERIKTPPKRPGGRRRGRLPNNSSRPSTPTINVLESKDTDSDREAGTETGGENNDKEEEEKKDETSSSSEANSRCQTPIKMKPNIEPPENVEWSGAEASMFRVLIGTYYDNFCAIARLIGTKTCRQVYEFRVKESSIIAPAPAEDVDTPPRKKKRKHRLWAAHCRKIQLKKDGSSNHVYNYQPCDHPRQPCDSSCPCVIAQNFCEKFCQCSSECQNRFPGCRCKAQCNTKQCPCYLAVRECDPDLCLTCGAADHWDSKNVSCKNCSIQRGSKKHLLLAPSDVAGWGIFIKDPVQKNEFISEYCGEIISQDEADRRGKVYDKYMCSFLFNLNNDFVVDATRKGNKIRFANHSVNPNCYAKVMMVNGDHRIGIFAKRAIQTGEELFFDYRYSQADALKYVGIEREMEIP
T1 sequence (O75530 whole entry partner): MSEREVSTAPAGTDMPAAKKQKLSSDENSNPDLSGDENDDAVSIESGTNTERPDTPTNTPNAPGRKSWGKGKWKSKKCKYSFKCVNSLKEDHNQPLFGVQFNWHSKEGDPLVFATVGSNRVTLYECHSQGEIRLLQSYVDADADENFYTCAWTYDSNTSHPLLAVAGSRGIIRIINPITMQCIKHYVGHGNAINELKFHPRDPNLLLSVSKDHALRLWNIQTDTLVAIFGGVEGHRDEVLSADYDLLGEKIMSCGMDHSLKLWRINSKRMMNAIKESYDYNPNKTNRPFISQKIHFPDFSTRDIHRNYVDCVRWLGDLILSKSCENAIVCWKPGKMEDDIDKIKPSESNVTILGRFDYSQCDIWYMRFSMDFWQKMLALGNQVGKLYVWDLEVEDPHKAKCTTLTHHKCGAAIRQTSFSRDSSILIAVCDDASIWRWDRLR
T1 sequence (Q15022 whole entry partner): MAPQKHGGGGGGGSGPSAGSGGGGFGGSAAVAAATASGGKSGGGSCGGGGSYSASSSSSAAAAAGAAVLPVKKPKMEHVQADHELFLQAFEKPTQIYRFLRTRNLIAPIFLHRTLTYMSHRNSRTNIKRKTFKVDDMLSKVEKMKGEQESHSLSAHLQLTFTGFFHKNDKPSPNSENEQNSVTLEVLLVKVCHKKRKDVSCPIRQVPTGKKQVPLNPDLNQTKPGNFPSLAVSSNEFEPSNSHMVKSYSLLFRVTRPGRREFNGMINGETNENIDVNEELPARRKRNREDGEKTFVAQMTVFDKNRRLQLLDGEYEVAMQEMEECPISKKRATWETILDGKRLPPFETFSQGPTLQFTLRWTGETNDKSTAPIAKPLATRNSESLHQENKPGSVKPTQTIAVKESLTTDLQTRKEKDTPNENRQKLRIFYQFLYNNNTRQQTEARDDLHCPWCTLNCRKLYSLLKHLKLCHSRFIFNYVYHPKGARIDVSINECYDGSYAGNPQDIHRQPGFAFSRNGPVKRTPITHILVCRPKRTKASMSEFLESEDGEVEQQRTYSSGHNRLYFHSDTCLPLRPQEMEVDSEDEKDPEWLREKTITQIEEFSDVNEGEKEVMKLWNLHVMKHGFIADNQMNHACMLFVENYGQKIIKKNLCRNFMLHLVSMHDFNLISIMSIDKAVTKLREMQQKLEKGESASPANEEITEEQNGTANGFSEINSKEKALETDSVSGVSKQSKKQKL

Structure (SMILES)	percent target protein degradation class
CCN(c1cc(-c2ccc(CCCOCCOc3cc(C(C(=O)N4C[C@H](O)C[C@H]4C(=O)N[C@@H](C)c4ccc(-c5scnc5C)cc4)C(C)C)on3)cc2)cc(C(=O)NCc2c(C)cc(C)[nH]c2=O)c1C)C1CCOCC1 (stereo partly drawn) [Compound 111, (2S,4R)-1-(2-(3-(2-(3-(3′-(((4,6-dimethyl-2-oxo-1,2-dihydropyridin-3-yl)methyl)carbamoyl)-5′-(ethyl(tetrahydro-2H-pyran-4-yl)amino)-4′-methyl-[1,1′-biphenyl]-4-yl)propoxy)ethoxy)isoxazol-5-yl)-3-methylbutanoyl)-4-hydroxy-N-((S)-1-(4-(4-methylthiazol-5-yl)phenyl)ethyl)pyrrolidine-2-carboxamide]	A (A = degradation more than 60%)
CCN(c1cc(-c2ccc(OCCCOCC(=O)N[C@H](C(=O)N3C[C@H](O)C[C@H]3C(=O)N[C@@H](C)c3ccc(-c4scnc4C)cc3)C(C)(C)C)cc2)cc(C(=O)NCc2c(C)cc(C)[nH]c2=O)c1C)C1CCOCC1 [Compound 95, (2S,4R)-1-((S)-2-(2-(3-((3′-(((4,6-dimethyl-2-oxo-1,2-dihydropyridin-3-yl)methyl)carbamoyl)-5′-(ethyl(tetrahydro-2H-pyran-4-yl)amino)-4′-methyl-[1,1′-biphenyl]-4-yl)oxy)propoxy)acetamido)-3,3-dimethylbutanoyl)-4-hydroxy-N-((S)-1-(4-(4-methylthiazol-5-yl)phenyl)ethyl)pyrrolidine-2-carboxamide]	A (A = degradation more than 60%)
CCN(c1cc(-c2ccc(OCCOCCOCCOc3ccc(-c4csc([C@@H]5CCCN5C(=O)[C@@H](NC(=O)[C@H](C)NC)C5CCCCC5)n4)c4ccccc34)cc2)cc(C(=O)NCc2c(C)cc(C)[nH]c2=O)c1C)C1CCOCC1 [Compound 28, 5-{4-[2-(2-{2-[(4-{2-[(2S)-1-[(2S)-2-cyclohexyl-2-[(2S)-2-(methylamino)propanamido]acetyl]pyrrolidin-2-yl]-1,3-thiazol-4-yl}naphthalen-1-yl)oxy]ethoxy}ethoxy)ethoxy]phenyl}-N-[(4,6-dimethyl-2-oxo-1,2-dihydropyridin-3-yl)methyl]-3-[ethyl(oxan-4-yl)amino]-2-methylbenzamide]	B (B = degradation between 30% and 60%)
CCN(c1cc(-c2ccc(OCCCCCOCC(=O)N[C@H](C(=O)N3C[C@H](O)C[C@H]3C(=O)NCc3ccc(-c4scnc4C)cc3)C(C)(C)C)cc2)cc(C(=O)NCc2c(C)cc(C)[nH]c2=O)c1C)C1CCOCC1 [Compound 46, (2S,4R)-1-[(2S)-2-[2-({5-[4-(3-{[(4,6-dimethyl-2-oxo-1,2-dihydropyridin-3-yl)methyl]carbamoyl}-5-[ethyl(oxan-4-yl)amino]-4-methylphenyl)phenoxy]pentyl}oxy)acetamido]-3,3-dimethylbutanoyl]-4-hydroxy-N-{[4-(4-methyl-1,3-thiazol-5-yl)phenyl]methyl}pyrrolidine-2-carboxamide]	A (A = degradation more than 60%)
CCN(c1cc(-c2ccc(CN3CCN(CCOCCOCC(=O)N[C@H](C(=O)N4C[C@H](O)C[C@H]4C(=O)N[C@@H](C)c4ccc(-c5scnc5C)cc4)C(C)(C)C)CC3)cc2)cc(C(=O)NCc2c(C)cc(C)[nH]c2=O)c1C)C1CCOCC1 [Compound 114, (2S,4R)-1-((S)-2-(2-(2-(2-(4-((3′-(((4,6-dimethyl-2-oxo-1,2-dihydropyridin-3-yl)methyl)carbamoyl)-5′-(ethyl(tetrahydro-2H-pyran-4-yl)amino)-4′-methyl-[1,1′-biphenyl]-4-yl)methyl)piperazin-1-yl)ethoxy)ethoxy)acetamido)-3,3-dimethylbutanoyl)-4-hydroxy-N-((S)-1-(4-(4-methylthiazol-5-yl)phenyl)ethyl)pyrrolidine-2-carboxamide]	A (A = degradation more than 60%)
CCN(c1cc(-c2ccc(OCCOCCOCCOCCOCCOCCOCCOCCNc3cccc4c3C(=O)N(C3CCC(=O)NC3=O)C4=O)cc2)cc(C(=O)NCc2c(C)cc(C)[nH]c2=O)c1C)C1CCOCC1 (stereo not shown) [Compound 22, N-[(4,6-dimethyl-2-oxo-1,2-dihydropyridin-3-yl)methyl]-5-[4-({1-[2-(2,6-dioxopiperidin-3-yl)-1,3-dioxo-2,3-dihydro-1H-isoindol-4-yl]-4,7,10,13,16,19,22-heptaoxa-1-azatetracosan-24-yl}oxy)phenyl]-3-[ethyl(oxan-4-yl)amino]-2-methylbenzamide]	B (B = degradation between 30% and 60%)
CCN(c1cc(-c2ccc(OCCOCC(=O)N[C@H](C(=O)N3C[C@H](O)C[C@H]3C(=O)NCc3ccc(-c4scnc4C)cc3)C(C)(C)C)cc2)cc(C(=O)NCc2c(C)cc(C)[nH]c2=O)c1C)C1CCOCC1 [Compound 32, (2S,4R)-1-[(2S)-2-(2-{2-[4-(3-{[(4,6-dimethyl-2-oxo-1,2-dihydropyridin-3-yl)methyl]carbamoyl}-5-[ethyl(oxan-4-yl)amino]-4-methylphenyl)phenoxy]ethoxy}acetamido)-3,3-dimethylbutanoyl]-4-hydroxy-N-{[4-(4-methyl-1,3-thiazol-5-yl)phenyl]methyl}pyrrolidine-2-carboxamide]	B (B = degradation between 30% and 60%)
CCN(c1cc(-c2ccccc2OCCOCCOCCOCCOCCOCCNc2cccc3c2C(=O)N(C2CCC(=O)NC2=O)C3=O)cc(C(=O)NCc2c(C)cc(C)[nH]c2=O)c1C)C1CCOCC1 (stereo not shown) [Compound 25, N-[(4,6-dimethyl-2-oxo-1,2-dihydropyridin-3-yl)methyl]-5-[2-({1-[2-(2,6-dioxopiperidin-3-yl)-1,3-dioxo-2,3-dihydro-1H-isoindol-4-yl]-4,7,10,13,16-pentaoxa-1-azaoctadecan-18-yl}oxy)phenyl]-3-[ethyl(oxan-4-yl)amino]-2-methylbenzamide]	B (B = degradation between 30% and 60%)
Cc1cc(C)c(CNC(=O)c2cc(-c3ccc(CN4CCN(CCOCCCOCCCOCC(=O)N[C@H](C(=O)N5C[C@H](O)C[C@H]5C(=O)NCc5ccc(-c6scnc6C)cc5)C(C)(C)C)CC4)cc3)cc3c2ccn3C2CCCC2)c(=O)[nH]1 [Compound 4, 1-cyclopentyl-N-[(4,6-dimethyl-2-oxo-1,2-dihydropyridin-3-yl)methyl]-6-(4-{[4-(2-{3-[3-({[(2S)-1-[(2S,4R)-4-hydroxy-2-({[4(4-methyl-1,3-thiazol-5-yl)phenyl]methyl}carbamoyl)pyrrolidin-1-yl]-3,3-dimethyl-1-oxobutan-2-yl]carbamoyl}methoxy)propoxy]propoxy}ethyl)piperazin-1-yl]methyl}phenyl)-1H-indole-4-carboxamide]	B (B = degradation between 30% and 60%)
CCN(c1cc(-c2ccc(OCCCCOc3ccc4c(c3)C(=O)N([C@@H](C(=O)N3C[C@H](O)C[C@H]3C(=O)N[C@@H](C)c3ccc(-c5scnc5C)cc3)C(C)C)C4)cc2)cc(C(=O)NCc2c(C)cc(C)[nH]c2=O)c1C)C1CCOCC1 [Compound 101, (2S,4R)-1-((R)-2-(6-(4-((3′-(((4,6-dimethyl-2-oxo-1,2-dihydropyridin-3-yl)methyl)carbamoyl)-5′-(ethyl(tetrahydro-2H-pyran-4-yl)amino)-4′-methyl-[1,1′-biphenyl]-4-yl)oxy)butoxy)-1-oxoisoindolin-2-yl)-3-methylbutanoyl)-4-hydroxy-N-((S)-1-(4-(4-methylthiazol-5-yl)phenyl)ethyl)pyrrolidine-2-carboxamide]	B (B = degradation between 30% and 60%)
CCN(c1cc(-c2ccc(CCCOCCCCC(=O)N[C@H](C(=O)N3C[C@H](O)C[C@H]3C(=O)N[C@@H](C)c3ccc(-c4scnc4C)cc3)C(C)(C)C)cc2)cc(C(=O)NCc2c(C)cc(C)[nH]c2=O)c1C)C1CCOCC1 [Compound 88, (2S,4R)-1-((S)-2-(5-(3-(3′-(((4,6-dimethyl-2-oxo-1,2-dibydropyridin-3-yl)methyl)carbamoyl)-5′-(ethyl(tetrahydro-2H-pyran-4-yl)amino)-41-methyl-[1,1′-biphenyl]-4-yl)propoxy)pentanamido)-3,3-dimethylbutanoyl)-4-hydroxy-N-((S)-1-(4-(4-methylthiazol-5-yl)phenyl)ethyl)pyrrolidine-2-carboxamide]	A (A = degradation more than 60%)
CCN(c1cc(-c2ccc(OCCOc3ccc4c(c3)C(=O)N([C@H](C(=O)N3C[C@H](O)C[C@H]3C(=O)N[C@@H](C)c3ccc(-c5scnc5C)cc3)C(C)C)C4)cc2)cc(C(=O)NCc2c(C)cc(C)[nH]c2=O)c1C)C1CCOCC1 [Compound 100]	A (A = degradation more than 60%)
CCN(c1cc(-c2ccc(OCCOCc3ccc4c(c3)C(=O)N([C@H](C(=O)N3C[C@H](O)C[C@H]3C(=O)N[C@@H](C)c3ccc(-c5scnc5C)cc3)C(C)C)C4)cc2)cc(C(=O)NCc2c(C)cc(C)[nH]c2=O)c1C)C1CCOCC1 [Compound 108, (2S,4R)-1-((S)-2-(6-((2-((3′-(((4,6-dimethyl-2-oxo-1,2-dihydropyridin-3-yl)methyl)carbamoyl)-5′-(ethyl(tetrahydro-2H-pyran-4-yl)amino)-4′-methyl-[1,1′-biphenyl]-4-yl)oxy)ethoxy)methyl)-1-oxoisoindolin-2-yl)-3-methylbutanoyl)-4-hydroxy-N-((S)-1-(4-(4-methylthiazol-5-yl)phenyl)ethyl)pyrrolidine-2-carboxamide]	B (B = degradation between 30% and 60%)

Source: patent publication US11857519B2, “Compounds and methods for the targeted degradation of enhancer of zeste homolog 2 polypeptide” (Arvinas Operations, Inc., priority 2016, dated 2024)
